Measurements published in patent US20030109920A1, “Engineered animal tissue” (The Regents of the University of California, priority 2001, published 2003).

Legend:
Type in all cases: cell-based, human
[1] = tested on: MMP-9; assay: Gelatin zymogram assay of MMP-9 in IL-8 treated artificial tissue; conditions: Cell/ECM extracts and culture medium (supernatants); samples collected 24 hours after IL-8 treatment (FIG. 4)
Method: (§1) Cell cultures: Three dimensional artificial tissues were created as described above in Example 1 using primary normal human microvascular endothelial cells from adult lung (hMVEC; Clonetics), and primary adult normal human dermal fibroblasts (NHDF; Clonetics). The cultures were set up in either 24-well plates or Transwell units (Becton Dickinson) with polyethylene tetraphthalate filters containing 4 μm pores. Cultures were maintained at 37° C. and of 5% CO2 for at least 2 weeks. Medium was changed 24 hours after the cultures were started and then fed every 48 hours.
Zymography: Zymography was performed using 10% denaturing polyacrylamide gels as previously described (Paech and Christiansen. (1994) In Cell biology: a laboratory handbook. (J. Celis, Ed.) V.3 pp.264-271 San Diego: Academic Press). Briefly, gels to test for gelatinolytic activity contained 1% gelatin (Sigma) and were cast 12 hours before the sample separation. Protein samples were separated at 4° C. with 10 mA constant current for each gel. The proteins were renatured using two washes of 15 minutes each in 2.5% Triton-X100 twice at RT. […]

[2] = tested on: PECAM-1; assay: IL-8 treatment of artificial tissue, phosphorylation of PECAM-1 by immunoblot; conditions: artificial tissue treated with IL-8 at 50, 100, 300, 600, 1000 ng/ml for 30 minutes; immunoblot (FIG. 3)
Method: as §1
(§2) Immunoblotting: SDS-PAGE was performed using 10% separating Doucet gels (Doucet, J., and J. Trifaro. A discontinous and highly porous sodium dodecyl sulfatepolyacrylamide slab gel system of high resolution. Anal. Biochem. (1988) 168:265-271.). Protein transfer to nitrocellulose membranes was performed using a wet-transfer apparatus (BioRad) at 100V for 45 min at room temperature. The membranes were blocked for 1 hour in 5% BSA in TTBS (0.05% Tween in Tris buffered saline) and incubated overnight at 4° C. in primary antibody diluted in 1% BSA in TTBS. The membranes were washed 3 times for 20 min each with TTBS, incubated in anti-mouse or anti-rabbit HRP (1:10,000) in 1% BSA for 1 hr, and washed 3 times for 20 minutes each with TTBS. The antibody bound to the membrane was visualized using ECL chemiluminescent kit (Amersham). […]

[3] = tested on: VE-cadherin; assay: IL-8 treatment of artificial tissue, phosphorylation of VE-Cadherin by immunoblot; conditions: artificial tissue treated with IL-8 at 50, 100, 300, 600, 1000 ng/ml for 30 minutes; immunoblot (FIG. 3)
Method: as §1, §2

For “IL-8: human chemokine IL-8, used as test compound on the artificial tissue”, the MMP-9 activation [1] was “increases MMP-9 production and activation in a dose-dependent manner”, the MMP-9 production [1] was “increases MMP-9 production and activation in a dose-dependent manner” and the “phosphorylation of PECAM in microvessels” value [2] was “stimulates the phosphorylation”. For the same substance, the “phosphorylation of VE-cadherin in microvessels” value [3] was “stimulates the phosphorylation”.
